Test results reported in publication PMC5393024, “Discovery and characterization of natural tropolones as inhibitors of the antibacterial target CapF from Staphylococcus aureus” (Scientific Reports, 2015).

Legend:
[1] = ITC titration of free Zn2+ in solution; format: binding; details: 150 µM Zn2+ (ZnCl2) titrated with 1.65 mM compound
Excerpt: Because tropolone and its analogs have been described as metal chelators in proteins, we anticipated that binding of the inhibitor to CapF is governed by the Zn^2+ ion present in the cupin domain[12]. To confirm this hypothesis, we performed two different types of experiments. First, we determined the binding properties of 3-isopropenyl-tropolone to apo-CapF (i.e. Zn^2+-depleted CapF) and to holo-CapF (reconstituted with Zn^2+) by isothermal titration calorimetry (ITC). The stoichiometry is consistent with a 1:1 binding model.
Figure S3. Zn2+ governs the binding of inhibitor to CapF. (a) Titration of 150 µM Zn2+ (prepared
from ZnCl2) with 1.65 mM 3-isopropenyl-tropolone. (b) Fluorescence of the Zn2+-sensitive dye
FluoZin-3 (1.0 µM) in the presence of CapF (1 µM), CapF (1 µM) with 3-isopropenyl-tropolone […]

[2] = biological target: T1, CapF lacking the His6-tag (Staphylococcus aureus, UniProt A0A0H3JP37); assay: ITC binding to CapF lacking the His6-tag
T1 sequence (A0A0H3JP37 1-369): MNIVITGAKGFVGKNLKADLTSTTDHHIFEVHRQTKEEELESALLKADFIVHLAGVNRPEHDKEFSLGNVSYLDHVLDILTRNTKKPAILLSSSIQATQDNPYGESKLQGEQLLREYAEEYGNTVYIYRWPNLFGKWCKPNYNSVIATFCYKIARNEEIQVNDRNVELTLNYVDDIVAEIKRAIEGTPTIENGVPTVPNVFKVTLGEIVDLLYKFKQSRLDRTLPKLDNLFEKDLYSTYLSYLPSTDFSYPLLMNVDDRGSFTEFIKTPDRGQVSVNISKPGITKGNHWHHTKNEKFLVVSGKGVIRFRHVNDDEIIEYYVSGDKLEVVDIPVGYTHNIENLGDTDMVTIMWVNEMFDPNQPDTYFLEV
Procedure: A control experiment with CapF lacking the His6-tag was carried to rule out the possibility of spurious effects caused by the affinity tag (Supplementary Information Figure S4).
Figure S4. Binding of 3-isopropyl-tropolone to CapF lacking the His6-tag. Titration of CapF (220 µM) with 2.2 mM inhibitor in a buffer composed of 10 mM HEPES (pH 7.5), 150 mM NaCl, and 5% DMSO at 25 °C. A construct of full-length CapF bearing a cleavable His6-tag was prepared and purified exactly as that of CapF Δ57-70 (see Methods section for the detailed protocol of CapFΔ57-70), except that (i) the dialysis buffer after to reconstitute the enzyme with Zn2+ contained 150 mM NaCl (instead of 50 mM) and 12.5 µM ZnCl2 (instead of 10 µM), and (ii) the buffer of the size exclusion chromatography step contained 10 mM HEPES (instead of 50 mM) and 150 mM NaCl (instead of 50 mM). The values of the thermodynamic parameters […]
kcal mol-1, and n = 0.92 ± 0.1.
(1 picture or pasted object on this page, not shown here)

For `C=C(C)c1ccccc(=O)c1O` [3-isopropenyl-tropolone], which “binding to free-Zn^2+ in solution by ITC” value [1] is on record?
The value was “not detected”.

What about the Kd [2] of the same compound?
The Kd was 13 ± 1 µM.

What about the “-TΔS” value ([2]; ITC, 25 °C) of the same compound?
Its value is -3.0 ± 0.4 kcal/mol.

What about the n ([2]; ITC, 25 °C) of the same compound?
The n was 0.92 ± 0.1.

What about the ΔH ([2]; ITC, 25 °C) of the same compound?
The ΔH was -3.6 ± 0.3 kcal/mol.
